Experiments:
Mu-type opioid receptor [1] = biological target: T1, Mu-type opioid receptor (Rattus norvegicus, UniProt P33535); format: cell membranes, Brain, Brain membranes
[2] = biological target: T2, Kappa-type opioid receptor (Cavia porcellus, UniProt P41144); experiment: In vito concentration required to displace 9 (Kd = […] and concentration is 1.8 nM) from opioid receptor kappa 2 in guinea brain membranes.; format: cell membranes
[3] = biological target: T3, Delta-type opioid receptor (Rattus norvegicus, UniProt P33533); experiment: In vito concentration required to displace [3H]-DADLE (Kd = 12.2 nM and concentration is 2.1 nM) from low affinity delta-site in rat brain membranes.; format: cell membranes
T3 sequence (P33533 whole entry): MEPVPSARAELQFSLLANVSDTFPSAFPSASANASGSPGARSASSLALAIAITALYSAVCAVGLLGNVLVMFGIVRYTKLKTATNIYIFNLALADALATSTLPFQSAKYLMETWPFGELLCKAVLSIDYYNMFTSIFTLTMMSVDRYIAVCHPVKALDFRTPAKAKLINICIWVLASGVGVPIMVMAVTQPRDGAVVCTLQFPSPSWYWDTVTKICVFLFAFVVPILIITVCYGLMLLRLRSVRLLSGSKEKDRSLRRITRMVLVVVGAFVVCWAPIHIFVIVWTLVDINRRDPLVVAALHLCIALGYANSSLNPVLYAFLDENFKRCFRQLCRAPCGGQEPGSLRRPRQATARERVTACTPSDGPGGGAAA

Mu-type opioid receptor [4] = biological target: T1, Mu-type opioid receptor; format: cell membranes, Brain, Brain membranes; remark: listed apart in the source
[5] = biological target: T2, Kappa-type opioid receptor; experiment: In vito concentration required to displace [3H]BRM (Kd = 1.0 nM and concentration is 1.8 nM) from opioid receptor kappa 2 in guinea brain membranes.; format: cell membranes
[6] = biological target: T3, Delta-type opioid receptor; experiment: In vito concentration required to displace [3H]DADLE (Kd = 12.2 nM and concentration is 2.1 nM) from low affinity delta-site in rat brain membranes.; format: cell membranes
[7] = biological target: T3, Delta-type opioid receptor; experiment: In vito concentration required to displace [3H]DADLE (Kd = […] and concentration is […]) from high affinity delta-site in rat brain membranes.; format: cell membranes
Mu-type opioid receptor [8] = biological target: T1, Mu-type opioid receptor; experiment: In vito concentration required to displace [3H]DAGO (Kd = 0.7 nM and concentration is […]) from opioid receptor mu in rat brain membranes.; format: cell membranes
[9] = biological target: T2, Kappa-type opioid receptor; experiment: In vito concentration required to displace [3H]-BRM (Kd = 1.0 nM and concentration is 1.8 nM) from opioid receptor kappa 2 in guinea brain membranes.; format: cell membranes
[10] = biological target: T2, Kappa-type opioid receptor; experiment: In vito concentration required to displace 9 (Kd = […] and concentration is 1.8 nM) from opioid receptor kappa 1 in guinea brain membranes.; format: cell membranes

T2 sequence (P41144 whole entry): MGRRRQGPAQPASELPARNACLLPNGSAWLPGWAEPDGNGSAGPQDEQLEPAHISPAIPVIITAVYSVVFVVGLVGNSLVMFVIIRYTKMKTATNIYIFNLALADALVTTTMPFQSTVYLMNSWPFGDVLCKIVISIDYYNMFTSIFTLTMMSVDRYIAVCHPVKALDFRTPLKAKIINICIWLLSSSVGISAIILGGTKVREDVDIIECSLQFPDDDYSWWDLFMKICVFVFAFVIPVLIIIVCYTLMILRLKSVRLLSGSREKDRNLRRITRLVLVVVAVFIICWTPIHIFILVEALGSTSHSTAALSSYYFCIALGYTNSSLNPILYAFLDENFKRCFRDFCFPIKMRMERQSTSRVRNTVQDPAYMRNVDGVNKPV
T1 sequence (P33535 whole entry): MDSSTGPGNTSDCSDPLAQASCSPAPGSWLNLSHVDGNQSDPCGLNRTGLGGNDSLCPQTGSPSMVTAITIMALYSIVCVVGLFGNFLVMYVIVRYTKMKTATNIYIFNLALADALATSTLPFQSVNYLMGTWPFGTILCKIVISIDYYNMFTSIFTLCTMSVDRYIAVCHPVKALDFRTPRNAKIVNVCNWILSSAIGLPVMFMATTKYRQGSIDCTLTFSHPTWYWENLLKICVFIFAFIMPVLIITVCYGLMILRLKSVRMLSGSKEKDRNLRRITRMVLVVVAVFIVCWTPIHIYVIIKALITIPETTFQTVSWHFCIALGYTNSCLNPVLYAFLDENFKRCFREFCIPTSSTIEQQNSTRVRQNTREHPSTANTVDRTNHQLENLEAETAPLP

SMILES	Ki (Mu-type opioid receptor [1])	Ki [2]	IC50 [3]	IC50 (Mu-type opioid receptor [4])	IC50 [5]	Ki [6]	IC50 [7]	IC50 (Mu-type opioid receptor [8])	Ki (Mu-type opioid receptor [8])	Ki [9]	IC50 [10]	Ki [10]	Ki [7]
Oc1ccc2c3c1O[C@H]1[C@H](I)CC[C@@]4(O)[C@@H](C2)N(CC2CC2)CC[C@]314	0.29 nM	2.73 nM	2.64 nM	0.77 nM	7.65 nM	2.25 nM	25.6 nM						
Oc1ccc2c3c1O[C@H]1[C@@H](Br)CC[C@@]4(O)[C@@H](C2)N(CC2CC2)CC[C@]314	1.19 nM		5.77 nM	3.14 nM	20.2 nM	4.92 nM	4.3 nM	4.21 nM	1.23 nM	7.21 nM	0.7 nM	0.32 nM	1.96 nM
Oc1ccc2c3c1O[C@H]1[C@@H](I)CC[C@@]4(O)[C@@H](C2)N(CC2CC2)CC[C@]314	1.65 nM		8.06 nM	4.34 nM	23.7 nM	6.88 nM				8.46 nM			
Oc1ccc2c3c1O[C@H]1[C@H](F)CC[C@@]4(O)[C@@H](C2)N(CC2CC2)CC[C@]314	3.42 nM		16.2 nM	8.98 nM	66 nM	13.8 nM	268 nM	11.4 nM	3.32 nM			3.71 nM	122 nM
